Measured values: patent publication US20100003271A1, “NITRIC OXIDE INCREASES SWITCHING OF T CELLS INTO T REGULATORY CELLS” (BOARD OF REGENTS OF THE UNIVERSITY OF TEXAS SYSTEM, priority 2006, published 2010)

How the values were obtained:
Assay type in all cases: cell-based, human
[1] = tested on: PBLs; assay: Generation of CD4+CD25highCD127- Treg cells in PBL culture (FACS)
Description: PBLs or purified T cells were either left untreated or treated with 10 μg/ml phytohemagglutanin (PHA, Sigma-Aldrich) at 1×10^6 cells/2 mL in 24-well plates in the absence or presence of various concentrations of SNAP-DMSO, DMSO or SNP and cultured in RPMI-10 for 5 days. Cells were then harvested and stained with anti-human CD4-PerCP, anti-human CD25-APC and anti-human CD127-PE Abs. Flow cytometry analysis measured CD4^+CD25^high CD127^low versus CD4^+CD25^highCD127^high populations using FACSAria with Diva program or FACSCalibur with CellQuest software (BD Pharmingen, San Diego, Calif.).

[2] = tested on: PHA-activated PBLs; assay: Intracellular FoxP3 staining of CD4+CD25highCD127- population; conditions: PHA-activated PBLs, 30, 50, 100 μM SNAP, 5 days, FIG. 3
Description: Foxp3 intracellular staining was carried out using the FITC anti-human Foxp3 staining kit (BDBiosciences, San Diego, Calif.; Cat no 71-5776-40). In brief, PBLs from various groups were incubated with anti-human CD4-PerCP, anti-human CD25-APC and anti-human CD127-PE Abs for 20 minutes at room temperature for surface staining of CD4, CD25 and CD127 molecules, respectively. Cells were then washed, and fixed with Fix/Perm solution (30 minutes at 4° C.) and permeabilized with permeabilization buffer followed by blocking with rat serum (15 minutes at 4° C.). Cells were then stained with FITC-conjugated anti-FoxP3 or isotype control Ab (30 minutes at 4° C.). Cells were analyzed by flow cytometry for intracellular FoxP3 levels in CD4^+CD25^high/CD127^low versus CD4^+CD25^high/CD127^high cells on a FACSAria.

[3] = tested on: PBLs challenged with HLA-mismatched alloantigen; assay: Number of Treg cells generated in alloactivated PBL culture; conditions: 100 μM SNAP, 60×10^6 PBLs, 5-day culture, FIG. 5A
Description: Alloactivation was set up by co-culturing responder PBLs (1-2×10^6 cells/ml) in a total volume of 35 ml of RPMI-10 with fully HLA mismatched gamma-irradiated (30 Gy) stimulators (1:1 ratio) in the presence of SNAP/DMSO. After 5 days, cells were washed and stained with anti-CD4-FITC and anti-CD25-PE Abs to isolate CD4+CD25^high and CD4+CD25^intermediate populations by FACS sorting. These cell populations were then added to fresh syngeneic PBLs (1×10^5) at different responder/regulator cell ratios (1/0, 1/0.005, 1/0.01, 1/0.05, 1/0.1, 1/0.5, and 1/1) with the same HLA-mismatched irradiated stimulators (1×10^5). Cells cultured in a 200 μl volume of RPMI-10 in 96-well round-bottomed plates for 5 days and pulsed with 1 μCi of [^3H]-thymidine for last 16 hours before harvesting. Cells were collected onto glass filters using an automated multi-sample harvester and the amount of [^3H]-thymidine incorporation was measured with a scintillation counter (Packard, Meridan, Conn.). Proliferative responses are expressed as the mean [^3H]-thymidine incorporation (counts per minute [cpm]) of triplicate wells±SD. In identical experiments, PBLs were activated with PHA (10 μg/ml) to examine the ability of NO-induced CD4+CD25^high population to suppress proliferation of alloantigen-specific MLC.

[4] = tested on: CD4+CD25- cells; assay: CFSE labeling and T cell co-culture assay (switching of CD4+CD25- cells); conditions: in the presence of Treg cells
Description: The CD4^+CD25^negative and CD4^+CD25^high T cell populations were isolated from T cells by cell sorting (FACSAria). Next, CD4^+CD25^negative cells were labeled with carboxyfluorescein diacetate succinimidyl ester (CFDA-SE; cat no C1157, Invitrogen) as described elsewhere (Hans et al., 2005). A stock solution of CFSE (5 mM) was diluted with PBS and added to the CD4^+CD25^negative cells at final concentration of 1 µM per 1×10^6 cells (20 minutes at 37° C.). After three washings, CFSE-labeled CD4^+CD25^negative cells (1×10^6) were co-cultured without or with CD4^+CD25^high cells at 10:1 ratio without or with titrated SNAP or DMSO and 6 hours later cells were activated with PHA (10 μg/ml). Following 5 days cells were harvested and stained with anti-human CD25-APC and anti-human CD127-PE Abs to measure transformation of CD^4+CD25^negative cells to CD25^+CD127^negative cells by FACS. The same cells were added to a primary syngeneic MLC at responder/regulator cell ratios (1/0, 1/0.25, 1/0.5, and 1/1). Cells were cultured for 5 days and the [^3H]-thymidine incorporation was measured as described above.

In the case of `CC(=O)NC(C(=O)O)C(C)(C)SN=O` (racemic) [SNAP, S-Nitroso-N-acetyl-DL-penicillamine], the “levels of CD4+CD25+CD127- Treg cells” value ([1]; PHA-activated PBLs, 5-day culture, FIG. 2B) is reported as “significantly increased”, the “increase in generation of CD4+CD25+CD127-FoxP3+ Treg cells” value ([1]; low NO concentrations (10-100 μM nitrite)) is reported as 3 fold and the “number of CD4+CD25+CD127- Treg cells” value ([1]; non-activated PBLs) is reported as “did not affect”. The “generation of Foxp3-positive CD4+CD25+CD127- Treg cells” value [2] was “induces generation of Foxp3-positive”, the “number of Treg cells generated relative to culture without SNAP” value [3] was about 3 fold and the “switching of CD4+CD25- cells into CD4+CD25+CD127-FoxP3+ T regulatory (Tr1) cells” value [4] was “elevated switching”.
